# Data as given in US20250171459A1, “2-METHYL-4',5'-DIHYDROSPIRO[PIPERIDINE-4,7'-THIENO[2,3-C]PYRAN] DERIVATIVES AS INHIBITORS OF APOL1 AND METHODS OF USING SAME” (Vertex Pharmaceuticals Incorporated, priority 2022, published 2025).
# Target: T1, APOL1 (Homo sapiens, UniProt O14791)
# T1 sequence (O14791 1-398 S342G/I384M): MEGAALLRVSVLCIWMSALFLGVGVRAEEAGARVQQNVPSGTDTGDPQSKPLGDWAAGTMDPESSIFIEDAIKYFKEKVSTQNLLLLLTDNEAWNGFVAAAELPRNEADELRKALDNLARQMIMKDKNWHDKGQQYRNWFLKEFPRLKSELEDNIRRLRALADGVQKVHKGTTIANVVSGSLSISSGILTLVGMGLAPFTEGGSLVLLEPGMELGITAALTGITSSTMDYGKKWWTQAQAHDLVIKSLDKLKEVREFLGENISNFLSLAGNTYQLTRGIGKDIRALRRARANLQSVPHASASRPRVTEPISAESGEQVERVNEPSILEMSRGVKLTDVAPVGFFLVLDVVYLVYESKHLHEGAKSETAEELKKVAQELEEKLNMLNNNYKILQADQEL
# Assay: MultiTox-Fluor Multiplex Cytotoxicity Assay in tet-inducible APOL1 T-REx-HEK293 cells (cell rescue, ratio of dead to live cells)
# Type: cell-based
# Conditions: tet-inducible transgenic APOL1 T-REx-HEK293 cell lines, 50 ng/mL tet, 24 hours; read-out: IP50 (i.e., IC50 for cell proliferation)
# Method in brief: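 T-REx-HEK293 cells with tet-inducible APOL1 were treated with compound (10 μM top, 10-point 3-fold dilution, duplicate) plus 50 ng/mL tetracycline for 24 h at 37° C, in DMEM with 2% tet-free FBS. MultiTox-Fluor protease signals gave a dead/live ratio, normalized to no tet (100% viability) and tet alone (0%).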
row,SMILES,IC50 [nM]
1,"CCc1cc2c(s1)CCO[C@@]21CCN(Cc2cnn(CCS(=O)(=O)NC)c2)[C@@H](C)C1 [Compound 264, 2-[4-[[(2′S,4R)-2-ethyl-2′-methyl-spiro[6,7-dihydrothieno[3,2-c]pyran-4,4′-piperidine]-1′-yl]methyl]pyrazol-1-yl]-N-methyl-ethanesulfonamide]",< 100
2,"C[C@H]1C[C@@]2(CCN1Cc1cnn(CCS(C)(=O)=O)c1)OCCc1cc(CC(F)F)sc12 [Compound 559, (2′S, 7R)-2-(2,2-difluoroethyl)-2′-methyl-1′-[[1-(2-methylsulfonylethyl)pyrazol-4-yl]methyl]spiro[4,5-dihydrothieno[2,3-c]pyran-7,4′-piperidine]]",< 100
3,C[C@H]1C[C@@]2(CCN1Cc1cnn(CC(O)C(N)=O)c1)OCCc1c2sc(C(F)(F)F)c1CO (stereo partly drawn) [Compound 932],< 100
4,CCc1cc2c(s1)CCOC21CCN(Cc2ccc(C(=O)NCCOCCO)nc2)CC1 [Compound 1063],100 to 500
5,C[C@H]1C[C@@]2(CCN1Cc1cnn(CC(O)CC(F)(F)F)c1)OCCc1c2sc(C(F)(F)F)c1CO (stereo partly drawn) [Compound 892],< 100
6,COc1cnc(CN2CC[C@]3(C[C@@H]2C)OCCc2c3sc(Cl)c2CO)cn1 [Compound 720],100 to 500
7,CCc1cc2c(s1)CCO[C@@]21CCN(CC2CN(S(=O)(=O)C3CCOCC3)C2)[C@@H](C)C1 [Compound 494],100 to 500
8,"CC(C)Cn1cc(CN2CC[C@]3(C[C@@H]2C)OCCc2c3sc(Cl)c2CO)cn1 [Compound 759, [(2′S, 7R)-2-chloro-1′-[(1-isobutylpyrazol-4-yl)methyl]-2′-methyl-spiro[4,5-dihydrothieno[2,3-c]pyran-7,4′-piperidine]-3-yl]methanol]",100 to 500
9,"CCc1cc2c(s1)CCOC21CCN(Cc2ccc(NS(=O)(=O)CCCO)cc2)CC1 [Compound 1159, N-(4-((2′-ethyl-6′,7′-dihydrospiro[piperidine-4,4′-thieno[3,2-c]pyran]-1-yl)methyl)phenyl)-3-hydroxypropane-1-sulfonamide]",< 100
10,CCc1cc2c(s1)CCO[C@@]21CCN(Cc2cn(CCS(=O)(=O)C(C)C)nn2)[C@@H](C)C1 [Compound 160],< 100
11,C[C@H]1C[C@@]2(CCN1CCC1CCOCC1)OC[C@H](O)c1cc(Cl)sc12 [Compound 779],500 to 1000
12,CCc1cc2c(s1)CCO[C@@]21CCN(C[C@H]2C[C@@H](NC(=O)c3ncccc3O)C2)[C@@H](C)C1 [Compound 345],100 to 500
13,CCc1cc2c(s1)C(C)COC21CCN(Cc2cn(CCS(C)(=O)=O)nn2)[C@@H](C)C1 (stereo partly drawn) [Compound 537],< 100
14,C[C@H]1C[C@@]2(CCN1C[C@H]1C[C@@H](NS(=O)(=O)C3CC3)C1)OCCc1cc(CC(F)F)sc12 [Compound 552],< 100
15,CCc1cc2c(s1)CCO[C@@]21CCN(Cc2ncon2)[C@@H](C)C1 [Compound 293],500 to 1000
16,COCCC(O)Cn1cc(CN2CC[C@]3(C[C@@H]2C)OCCc2c3sc(C(F)(F)F)c2CO)cn1 (stereo partly drawn) [Compound 967],< 100
17,CCc1cc2c(s1)CCO[C@@]21CCN(CC(O)C(F)(F)F)[C@@H](C)C1 (stereo partly drawn) [Compound 241],100 to 500
18,C[C@H]1C[C@@]2(CCN1Cc1cnn(CC(O)c3ccccn3)c1)OCCc1c2sc(C(F)(F)F)c1CO (stereo partly drawn) [Compound 939],< 100
19,CCc1cc2c(s1)CCOC21CCN(Cc2cn(CCN3CCC(O)C3)nn2)CC1 (stereo not drawn) [Compound 1104],500 to 1000
20,C[C@H]1C[C@@]2(CCN1Cc1cnn(CC(O)C3(O)CCOC3)c1)OCCc1c2sc(C(F)(F)F)c1CO (stereo partly drawn) [Compound 941],< 100
21,CCc1cc2c(s1)CCOC21CCN(Cc2ccc(C(=O)Nc3ccn(C)n3)nc2)CC1 [Compound 1051],< 100
22,C[C@H]1C[C@@]2(CCN1Cc1ccnn1C)OC[C@H](O)c1cc(Cl)sc12 [Compound 787],500 to 1000
23,COc1cccc(CN2CC[C@]3(C[C@@H]2C)OCCc2cc(Cl)sc23)n1 [Compound 689],500 to 1000
24,CCc1cc2c(s1)CCO[C@@]21CCN(C[C@H]2C[C@@H](NS(=O)(=O)c3cccc(C)c3)C2)[C@@H](C)C1 [Compound 406],< 100
25,CCc1cc2c(s1)CCO[C@@]21CCN(Cc2cn(CCOCCO)nn2)[C@@H](C)C1 [Compound 178],100 to 500
26,C[C@H]1C[C@@]2(CCN1C[C@H](O)CO)OCCc1cc(CC(F)F)sc12 [Compound 607],100 to 500
27,C[C@H]1C[C@@]2(CCN1CC1CCOCC1)OCCc1cc(Cl)sc12 [Compound 685],500 to 1000

row,SMILES,IC50 [nM]
1,CCc1cc2c(s1)CCO[C@@]21CCN(C[C@H]2C[C@@H](NC(=O)CNS(=O)(=O)CC)C2)[C@@H](C)C1 [Compound 353],< 100
2,C[C@H]1C[C@@]2(CCN1CCCn1cccn1)OC[C@H](O)c1cc(Cl)sc12 [Compound 815],500 to 1000
3,Cc1cc(CN2CC[C@]3(C[C@@H]2C)OCCc2cc(CC(F)F)sc23)no1 [Compound 584],< 100
4,CCc1cc2c(s1)CCO[C@@]21CCN(Cc2cnc(NCCN(CCO)CCO)nc2)[C@@H](C)C1 [Compound 230],< 100
5,CCc1cc2c(s1)CCO[C@@]21CCN(CC2CN(C(=O)c3ncc(OC)o3)C2)[C@@H](C)C1 [Compound 466],< 100
6,C[C@H]1C[C@@]2(CCN1CC1CC1(F)F)OCCc1cc(CC(F)F)sc12 (stereo partly drawn) [Compound 617],< 100
7,"C[C@H]1C[C@@]2(CCN1Cc1cnn(CCS(C)(=O)=O)c1)OCC(N)c1cc(Cl)sc12 (stereo partly drawn) [Compound 854, (2′S, 7R)-2-chloro-2′-methyl-1′-[[1-(2-methylsulfonylethyl)pyrazol-4-yl]methyl]spiro[4,5-dihydrothieno[2,3-c]pyran-7,4′-piperidine]-4-amine]",< 100
8,CCc1cc2c(s1)CCO[C@@]21CCN(Cc2cn(CC(O)CN3CCOCC3)nn2)[C@@H](C)C1 (stereo partly drawn) [Compound 191],< 100
9,CCc1cc2c(s1)CCO[C@@]21CCN(C[C@H]2C[C@@H](NS(=O)(=O)c3ccccc3F)C2)[C@@H](C)C1 [Compound 408],< 100
10,"C[C@H]1C[C@@]2(CCN1Cc1cnn(C[C@H](O)C(C)(C)O)c1)OC[C@@H](O)c1cc(C(F)(F)F)sc12 [Compound 889, (2S)-1-[4-[[(2′S,4S,7R)-4-hydroxy-2′-methyl-2-(trifluoromethyl)spiro[4,5-dihydrothieno[2,3-c]pyran-7,4′-piperidine]-1′-yl]methyl]pyrazol-1-yl]-3-methyl-butane-2,3-diol]",< 100
11,CCc1cc2c(s1)CCO[C@@]21CCN(CC2CN(S(=O)(=O)c3cnn4c3OCCC4)C2)[C@@H](C)C1 [Compound 495],500 to 1000
12,C[C@H]1C[C@@]2(CCN1C[C@H]1C[C@@H](NC(=O)C3CC3)C1)OCCc1cc(CC(F)F)sc12 [Compound 556],< 100
13,"CCc1cc2c(s1)CCO[C@]21CCN(Cc2cn(CCS(C)(=O)=O)nn2)[C@H](C)C1 [Compound 10, (2′R,4S)-2-ethyl-2′-methyl-1′-[[1-(2-methylsulfonylethyl)triazol-4-yl]methyl]spiro[6,7-dihydrothieno[3,2-c]pyran-4,4′-piperidine]]",500 to 1000
14,C[C@H]1C[C@@]2(CCN1Cc1cnn(CC(=O)N(C)C)c1)OCCc1c2sc(C(F)(F)F)c1CO [Compound 897],< 100
15,C[C@H]1C[C@@]2(CCN1Cc1cn(-c3ncccn3)cn1)OCCc1cc(Cl)sc12 [Compound 650],100 to 500
16,COc1ccc(CN2CC[C@]3(C[C@@H]2C)OCCc2c3sc(Cl)c2CO)cc1OCC(N)=O [Compound 744],< 100
17,"CCc1cc2c(s1)CCO[C@@]21CCN(C[C@H]2C[C@@H](NC(=O)OCCOCCOCCOC(=O)NCCOCCOCCCCCCCl)C2)[C@@H](C)C1 [Compound 386, 2-[2-[2-[[3-[[(2′S,4R)-2-ethyl-2′-methyl-spiro[6,7-dihydrothieno[3,2-c]pyran-4,4′-piperidine]-1′-yl]methyl]cyclobutyl]carbamoyloxy]ethoxy]ethoxy]ethyl N-[2-[2-(6-chlorohexoxy)ethoxy]ethyl]carbamate]",< 100
18,C[C@H]1C[C@@]2(CCN1C[C@H]1C[C@@H](NC(=O)C3CC3(F)F)C1)OCCc1cc(CC(F)F)sc12 (stereo partly drawn) [Compound 551],< 100
19,CCc1cc2c(s1)CCO[C@@]21CCN(CC2CN(C(=O)CN3CCOC3=O)C2)[C@@H](C)C1 [Compound 477],< 100
20,CCc1cc2c(s1)CCOC21CCN(Cc2c[nH]cn2)CC1 [Compound 1141],500 to 1000
21,C[C@H]1C[C@@]2(CCN1Cc1ccon1)OCCc1cc(CC(F)F)sc12 [Compound 579],< 100
22,CCc1cc2c(s1)CCO[C@@]21CCN(Cc2cn(C(C)(C)C(N)=O)nn2)[C@@H](C)C1 [Compound 149],500 to 1000
23,CCc1cc2c(s1)CCO[C@@]21CCN(Cc2cn(C(CO)[C@H](C)O)nn2)[C@@H](C)C1 (stereo partly drawn) [Compound 193],500 to 1000
24,C[C@H]1C[C@@]2(CCN1Cc1cnn(CC3(O)CCS(=O)(=O)CC3)c1)OCCc1c2sc(C(F)(F)F)c1CO [Compound 947],< 100
25,CCc1cc2c(s1)CCO[C@@]21CCN(C[C@H]2C[C@@H](NC(=O)c3ccn(CC(C)C)n3)C2)[C@@H](C)C1 [Compound 317],100 to 500
26,[2H]C([2H])([2H])OC1CO[C@@]2(CCN(Cc3cnn(CCS(C)(=O)=O)c3)[C@@H](C)C2)c2sc(Cl)cc21 (stereo partly drawn) [Compound 846],< 100
27,CNC(=O)c1cccc(CN2CC[C@]3(C[C@@H]2C)OCCc2c3sc(Cl)c2CO)c1 [Compound 730],100 to 500
